In test [1] the target is T1, PIP5K2C (Homo sapiens, UniProt Q8TBX8).
T1 sequence (Q8TBX8 1-421): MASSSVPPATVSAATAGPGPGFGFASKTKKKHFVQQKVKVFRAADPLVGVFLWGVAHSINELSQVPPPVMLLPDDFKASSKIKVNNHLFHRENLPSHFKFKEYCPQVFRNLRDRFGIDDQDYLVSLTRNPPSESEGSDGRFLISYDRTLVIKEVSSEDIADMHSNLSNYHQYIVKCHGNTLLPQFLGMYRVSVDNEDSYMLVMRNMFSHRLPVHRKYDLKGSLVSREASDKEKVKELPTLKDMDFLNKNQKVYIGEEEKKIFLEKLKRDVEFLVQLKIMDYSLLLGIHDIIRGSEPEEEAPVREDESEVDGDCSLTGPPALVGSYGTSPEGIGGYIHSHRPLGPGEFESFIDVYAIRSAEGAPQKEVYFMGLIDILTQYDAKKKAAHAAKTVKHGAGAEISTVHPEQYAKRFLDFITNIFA
Briefly: Kinobeads competition binding, HL60 cell lysate. Set-up: endogenous in cells; host or cells: HL60. To be noted: 10 μM free compound. The method, boiled down:
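Competition readout: iTRAQ reporter-ion peak areas (LC-MS/MS) comparing bead-bound kinase with 10 μM free compound versus 0.5% DMSO. Compound-immobilized Sepharose was incubated with HL60 lysate, 50 mg protein, 2 h, 4 °C, then washed, eluted in SDS buffer and resolved by SDS-PAGE.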

Test [2] addresses SYK (Homo sapiens, UniProt P43405). Briefly: Kinobeads competition binding, HL60 cell lysate. Set-up: capturing and identification of kinases from mixed HeLa placenta lysates; endogenous in cells. To be noted: 10 μM free compound. How it is done: To one aliquot of cell lysate 10 μM of the free compound (FIG. 3, CZC31326) was added and allowed to bind to proteins in the lysate. Then the affinity matrix with the immobilized compound (Example 1) was added to capture proteins that were not interacting with the previously added free compound. Beads were separated from the lysate and bead bound proteins were eluted in SDS sample buffer and subsequently separated by SDS-Polyacrylamide gel electrophoresis (FIG. 4). Suitable gel bands were cut out and subjected to in-gel proteolytic digestion with trypsin. The second lysate aliquot was processed identically, however no free compound was added (DMSO solvent control). Peptides originating from samples 1 and 2 were labeled with iTRAQ reagents (iTRAQ 114 and iTRAQ 117) and the combined samples were analyzed with a nano-flow liquid chromatography system coupled online to a tandem mass spectrometer (LC-MS/MS) experiment followed by iTRAQ reporter ion quantification in the MS/MS spectra (Ross et al., 2004. Mol. Cell. Proteomics 3(12):1154-1169). […] The iTRAQ reagents are a set of multiplexed, amine-specific, stable isotope reagents that can label peptides on amino groups in up to four different biological samples enabling simultaneous identification and quantitation of peptides. […]

In patent US20120270237A9, “METHODS FOR THE IDENTIFICATION OF KINASE INTERACTING MOLECULES AND FOR THE PURIFICATION OF KINASE PROTEINS” (Cellzone AG, priority 2009, published 2012) one finds inhibition and Competition % data, which are given here for 1 molecule.

By inhibition is commonly meant the relative decrease from the control value, in per cent. A high value points to strong suppression. Take `CS(=O)(=O)Nc1ccccc1Nc1nc(Nc2cccc(OCCN)c2)ncc1Cl` [CZC31326, N-(2-(2-(3-(2-aminoethoxy)phenylamino)-5-chloropyrimidin-4-ylamino)phenyl)methanesulfonamide]: the inhibition at 10 µM in test [1] came out at 98.3%. In test [2], the Competition % was 95.6%.
